Measured values taken from PubChem BioAssay (NCI).
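How tested: cells in 96-well plates exposed to compound for 48 hours at five concentrations. GI50 = concentration required for 50% inhibition of growth. Definition used: TGI = concentration required for complete inhibition of growth.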

Tests used:
Test in all cases: NCI anticancer screen, dose series, 48 h
LOX IMVI melanoma = test system: LOX IMVI melanoma
HL-60(TB) leukemia = test system: HL-60(TB) leukemia
PC-3 prostate = test system: PC-3 prostate
SF-268 CNS = test system: SF-268 CNS
NCI-H226 lung = test system: NCI-H226 lung
MDA-MB-231 breast = test system: MDA-MB-231 breast
A549 NSCLC = test system: A549 NSCLC
SK-MEL-28 melanoma = test system: SK-MEL-28 melanoma
DU-145 prostate = test system: DU-145 prostate
SW-620 colon = test system: SW-620 colon
KM12 colon = test system: KM12 colon
NCI-H460 lung = test system: NCI-H460 lung
SK-OV-3 ovarian = test system: SK-OV-3 ovarian
MDA-MB-435 = test system: MDA-MB-435
MOLT-4 leukemia = test system: MOLT-4 leukemia
BT-549 breast = test system: BT-549 breast
T-47D breast = test system: T-47D breast
SNB-19 CNS = test system: SNB-19 CNS
OVCAR-4 ovarian = test system: OVCAR-4 ovarian
786-0 renal = test system: 786-0 renal
NCI-H522 lung = test system: NCI-H522 lung
HCT-116 colon = test system: HCT-116 colon
U251 CNS = test system: U251 CNS
HCT-15 colon = test system: HCT-15 colon
SN12C renal = test system: SN12C renal
TK-10 renal = test system: TK-10 renal
RPMI-8226 leukemia = test system: RPMI-8226 leukemia
HOP-92 NSCLC = test system: HOP-92 NSCLC
SF-539 CNS = test system: SF-539 CNS
COLO 205 colon = test system: COLO 205 colon
SK-MEL-2 melanoma = test system: SK-MEL-2 melanoma
SF-295 CNS = test system: SF-295 CNS
K-562 leukemia = test system: K-562 leukemia
HOP-62 NSCLC = test system: HOP-62 NSCLC
SNB-75 CNS = test system: SNB-75 CNS
SK-MEL-5 melanoma = test system: SK-MEL-5 melanoma
NCI/ADR-RES ovarian = test system: NCI/ADR-RES ovarian
HS 578T breast = test system: HS 578T breast
EKVX NSCLC = test system: EKVX NSCLC
SR leukemia = test system: SR leukemia
ACHN renal = test system: ACHN renal
OVCAR-5 ovarian = test system: OVCAR-5 ovarian
RXF 393 renal = test system: RXF 393 renal
M14 melanoma = test system: M14 melanoma
UACC-257 melanoma = test system: UACC-257 melanoma
CAKI-1 renal = test system: CAKI-1 renal
IGROV1 ovarian = test system: IGROV1 ovarian
UACC-62 melanoma = test system: UACC-62 melanoma
OVCAR-3 ovarian = test system: OVCAR-3 ovarian
UO-31 renal = test system: UO-31 renal
MALME-3M melanoma = test system: MALME-3M melanoma
A498 renal = test system: A498 renal
CCRF-CEM leukemia = test system: CCRF-CEM leukemia
NCI-H23 lung = test system: NCI-H23 lung
OVCAR-8 ovarian = test system: OVCAR-8 ovarian
HCC-2998 colon = test system: HCC-2998 colon

N#Cc1c(-c2cccs2)c2c(=S)[nH]c(=S)[nH]c2[nH]c1=S
GI50 (LOX IMVI melanoma): 18.2 µM
TGI (LOX IMVI melanoma): 39.8 µM
GI50 (HL-60(TB) leukemia): 15.4 µM
TGI (HL-60(TB) leukemia): 47.9 µM
GI50 (PC-3 prostate): 30.8 µM
TGI (PC-3 prostate): > 100 µM
GI50 (SF-268 CNS): 32.4 µM
TGI (SF-268 CNS): 67.2 µM
GI50 (NCI-H226 lung): 37.2 µM
TGI (NCI-H226 lung): > 100 µM
GI50 (MDA-MB-231 breast): 39 µM
TGI (MDA-MB-231 breast): > 100 µM
GI50 (A549 NSCLC): 28.9 µM
TGI (A549 NSCLC): > 100 µM
GI50 (SK-MEL-28 melanoma): 22.4 µM
TGI (SK-MEL-28 melanoma): > 100 µM
GI50 (DU-145 prostate): 24 µM
TGI (DU-145 prostate): 78.7 µM
GI50 (SW-620 colon): 32.8 µM
TGI (SW-620 colon): 81 µM
GI50 (KM12 colon): 28.6 µM
TGI (KM12 colon): > 100 µM
GI50 (NCI-H460 lung): 39.1 µM
TGI (NCI-H460 lung): 72.9 µM
GI50 (SK-OV-3 ovarian): 46 µM
TGI (SK-OV-3 ovarian): > 100 µM
GI50 (MDA-MB-435): 41.1 µM
TGI (MDA-MB-435): > 100 µM
GI50 (MOLT-4 leukemia): 14.3 µM
TGI (MOLT-4 leukemia): 42.7 µM
GI50 (BT-549 breast): 23.5 µM
TGI (BT-549 breast): 56.2 µM
GI50 (T-47D breast): 28.1 µM
TGI (T-47D breast): 98.8 µM
GI50 (SNB-19 CNS): 75.7 µM
TGI (SNB-19 CNS): > 100 µM
GI50 (OVCAR-4 ovarian): 53 µM
TGI (OVCAR-4 ovarian): > 100 µM
GI50 (786-0 renal): 36.4 µM
TGI (786-0 renal): > 100 µM
GI50 (NCI-H522 lung): 29.1 µM
TGI (NCI-H522 lung): 79 µM
GI50 (HCT-116 colon): 49.5 µM
TGI (HCT-116 colon): > 100 µM
GI50 (U251 CNS): 30.2 µM
TGI (U251 CNS): > 100 µM
GI50 (HCT-15 colon): 37 µM
TGI (HCT-15 colon): > 100 µM
GI50 (SN12C renal): 43 µM
TGI (SN12C renal): > 100 µM
GI50 (TK-10 renal): 90.7 µM
TGI (TK-10 renal): > 100 µM
GI50 (RPMI-8226 leukemia): 27.4 µM
TGI (RPMI-8226 leukemia): 73.6 µM
GI50 (HOP-92 NSCLC): 89.4 µM
TGI (HOP-92 NSCLC): > 100 µM
GI50 (SF-539 CNS): 22 µM
TGI (SF-539 CNS): 48.1 µM
GI50 (COLO 205 colon): 28.8 µM
TGI (COLO 205 colon): > 100 µM
GI50 (SK-MEL-2 melanoma): 32.9 µM
TGI (SK-MEL-2 melanoma): 80.9 µM
GI50 (SF-295 CNS): 46.5 µM
TGI (SF-295 CNS): > 100 µM
GI50 (K-562 leukemia): 27.1 µM
TGI (K-562 leukemia): > 100 µM
GI50 (HOP-62 NSCLC): > 100 µM
TGI (HOP-62 NSCLC): > 100 µM
GI50 (SNB-75 CNS): > 100 µM
TGI (SNB-75 CNS): > 100 µM
GI50 (SK-MEL-5 melanoma): 17.2 µM
TGI (SK-MEL-5 melanoma): 33.9 µM
GI50 (NCI/ADR-RES ovarian): 62 µM
TGI (NCI/ADR-RES ovarian): 99.3 µM
GI50 (HS 578T breast): 53.7 µM
TGI (HS 578T breast): 90.3 µM
GI50 (EKVX NSCLC): 20 µM
TGI (EKVX NSCLC): 60.8 µM
GI50 (SR leukemia): 29.3 µM
TGI (SR leukemia): > 100 µM
GI50 (ACHN renal): 23.8 µM
TGI (ACHN renal): 67.6 µM
GI50 (OVCAR-5 ovarian): > 100 µM
TGI (OVCAR-5 ovarian): > 100 µM
GI50 (RXF 393 renal): 37.1 µM
TGI (RXF 393 renal): > 100 µM
GI50 (M14 melanoma): 57.5 µM
TGI (M14 melanoma): > 100 µM
GI50 (UACC-257 melanoma): 18 µM
TGI (UACC-257 melanoma): 81.3 µM
GI50 (CAKI-1 renal): 31.4 µM
TGI (CAKI-1 renal): > 100 µM
GI50 (IGROV1 ovarian): 71.3 µM
TGI (IGROV1 ovarian): > 100 µM
GI50 (UACC-62 melanoma): 36.3 µM
TGI (UACC-62 melanoma): > 100 µM
GI50 (OVCAR-3 ovarian): 34.5 µM
TGI (OVCAR-3 ovarian): 98.8 µM
GI50 (UO-31 renal): 40.6 µM
TGI (UO-31 renal): 92.6 µM

C=CC(=O)Nc1cccc(-c2nc(SC)nc(Nc3ccccc3OC)c2C#N)c1
GI50 (MALME-3M melanoma): 1.54 µM
TGI (MALME-3M melanoma): 3.44 µM
GI50 (HL-60(TB) leukemia): 2.53 µM
TGI (HL-60(TB) leukemia): 13 µM
GI50 (PC-3 prostate): 1.94 µM
TGI (PC-3 prostate): 4.9 µM
GI50 (SF-268 CNS): 2.85 µM
TGI (SF-268 CNS): 14.3 µM
GI50 (A498 renal): 2.8 µM
TGI (A498 renal): 9.34 µM
GI50 (NCI-H226 lung): 9.7 µM
TGI (NCI-H226 lung): 36.1 µM
GI50 (MDA-MB-231 breast): 1.83 µM
TGI (MDA-MB-231 breast): 4.33 µM
GI50 (A549 NSCLC): 2.08 µM
TGI (A549 NSCLC): 5.24 µM
GI50 (SK-MEL-28 melanoma): 2.29 µM
TGI (SK-MEL-28 melanoma): 5.71 µM
GI50 (DU-145 prostate): 1.92 µM
TGI (DU-145 prostate): 4.96 µM
GI50 (KM12 colon): 3.02 µM
TGI (KM12 colon): 12 µM
GI50 (SK-OV-3 ovarian): 6.09 µM
TGI (SK-OV-3 ovarian): 26.9 µM
GI50 (MDA-MB-435): 1.93 µM
TGI (MDA-MB-435): 4.48 µM
GI50 (MOLT-4 leukemia): 2.62 µM
TGI (MOLT-4 leukemia): 83.5 µM
GI50 (BT-549 breast): 3.19 µM
TGI (BT-549 breast): 38.5 µM
GI50 (T-47D breast): 1.59 µM
TGI (T-47D breast): 4.34 µM
GI50 (SNB-19 CNS): 2.31 µM
TGI (SNB-19 CNS): 6.51 µM
GI50 (CCRF-CEM leukemia): 3.07 µM
TGI (CCRF-CEM leukemia): > 100 µM
GI50 (NCI-H23 lung): 2.15 µM
TGI (NCI-H23 lung): 5.99 µM
GI50 (NCI-H522 lung): 2.04 µM
TGI (NCI-H522 lung): 6.53 µM
GI50 (SN12C renal): 2.5 µM
TGI (SN12C renal): 8.15 µM
GI50 (TK-10 renal): 1.99 µM
TGI (TK-10 renal): 4.02 µM
GI50 (RPMI-8226 leukemia): 3.11 µM
TGI (RPMI-8226 leukemia): > 100 µM
GI50 (HOP-92 NSCLC): 1.7 µM
TGI (HOP-92 NSCLC): 4.28 µM
GI50 (SF-539 CNS): 1.93 µM
TGI (SF-539 CNS): 4.53 µM
GI50 (COLO 205 colon): 1.95 µM
TGI (COLO 205 colon): 5.33 µM
GI50 (SK-MEL-2 melanoma): 2.56 µM
TGI (SK-MEL-2 melanoma): 8.58 µM
GI50 (SF-295 CNS): 1.95 µM
TGI (SF-295 CNS): 4.46 µM
GI50 (K-562 leukemia): 2.03 µM
TGI (K-562 leukemia): 5.62 µM
GI50 (HOP-62 NSCLC): 2.25 µM
TGI (HOP-62 NSCLC): 6.17 µM
GI50 (SNB-75 CNS): 1.5 µM
TGI (SNB-75 CNS): 4.35 µM
GI50 (SK-MEL-5 melanoma): 1.9 µM
TGI (SK-MEL-5 melanoma): 4.32 µM
GI50 (NCI/ADR-RES ovarian): 2.46 µM
TGI (NCI/ADR-RES ovarian): 6.99 µM
GI50 (HS 578T breast): 2.34 µM
TGI (HS 578T breast): 6.61 µM
GI50 (EKVX NSCLC): 2.71 µM
TGI (EKVX NSCLC): 10.4 µM
GI50 (SR leukemia): 1.49 µM
TGI (SR leukemia): 4.19 µM
GI50 (ACHN renal): 1.7 µM
TGI (ACHN renal): 3.32 µM
GI50 (OVCAR-5 ovarian): 2.26 µM
TGI (OVCAR-5 ovarian): 5.92 µM
GI50 (RXF 393 renal): 1.95 µM
TGI (RXF 393 renal): 5.42 µM
GI50 (M14 melanoma): 2.22 µM
TGI (M14 melanoma): 5.64 µM
GI50 (OVCAR-8 ovarian): 2.07 µM
TGI (OVCAR-8 ovarian): 5.42 µM
GI50 (UACC-257 melanoma): 2.53 µM
TGI (UACC-257 melanoma): 8.78 µM
GI50 (CAKI-1 renal): 1.71 µM
TGI (CAKI-1 renal): 4.3 µM
GI50 (UACC-62 melanoma): 2.81 µM
TGI (UACC-62 melanoma): 14.6 µM
GI50 (OVCAR-3 ovarian): 1.87 µM
TGI (OVCAR-3 ovarian): 3.58 µM
GI50 (UO-31 renal): 1.42 µM
TGI (UO-31 renal): 3.18 µM
GI50 (HCC-2998 colon): 2.58 µM
TGI (HCC-2998 colon): 8.66 µM

C#Cc1ccc(-n2c(/C=C/c3ccc(Cl)c(F)c3)nc3ncccc3c2=O)cc1
GI50 (LOX IMVI melanoma): 0.183 µM
TGI (LOX IMVI melanoma): 0.504 µM
GI50 (MOLT-4 leukemia): 0.546 µM
TGI (MOLT-4 leukemia): > 100 µM
GI50 (OVCAR-4 ovarian): 0.27 µM
TGI (OVCAR-4 ovarian): 1.03 µM
GI50 (CCRF-CEM leukemia): 0.29 µM
TGI (CCRF-CEM leukemia): > 100 µM
GI50 (RPMI-8226 leukemia): 0.351 µM
TGI (RPMI-8226 leukemia): 2.03 µM
GI50 (K-562 leukemia): 0.337 µM
TGI (K-562 leukemia): > 100 µM
GI50 (HS 578T breast): 0.419 µM
TGI (HS 578T breast): > 100 µM
